Measurements as given in ChEMBL document CHEMBL1152887, “Identification of novel and potent 2-amino benzamide derivatives as allosteric glucokinase activators” (Bioorg Med Chem Lett, 2009).

Assays:
[1] = biological target: T1, Hexokinase-4 (Homo sapiens, UniProt P35557)
T1 sequence (P35557 whole entry): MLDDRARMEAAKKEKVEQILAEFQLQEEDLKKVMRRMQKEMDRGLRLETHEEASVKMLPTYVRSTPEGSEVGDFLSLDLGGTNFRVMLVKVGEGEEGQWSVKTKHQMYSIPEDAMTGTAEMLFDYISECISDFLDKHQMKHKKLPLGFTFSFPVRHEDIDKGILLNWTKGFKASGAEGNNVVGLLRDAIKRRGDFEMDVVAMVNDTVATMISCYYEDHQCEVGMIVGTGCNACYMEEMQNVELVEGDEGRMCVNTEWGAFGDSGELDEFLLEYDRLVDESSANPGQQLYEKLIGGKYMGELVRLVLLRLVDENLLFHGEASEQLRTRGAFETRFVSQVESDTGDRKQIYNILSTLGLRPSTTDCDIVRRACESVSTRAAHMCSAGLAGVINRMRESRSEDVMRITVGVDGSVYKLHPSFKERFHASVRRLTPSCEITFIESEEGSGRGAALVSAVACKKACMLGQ

[2] = biological target: T1, Hexokinase-4; remark: listed apart in the source
[3] = Clearance in Wistar rat at 1 mg/kg, iv and 3 mg/kg, po; assay type: ADME, organism-based; conditions: in vivo
[4] = Cmax in Wistar rat at 1 mg/kg, iv and 3 mg/kg, po; assay type: ADME, organism-based; conditions: in vivo
[5] = Oral bioavailability in Wistar rat at 3 mg/kg; assay type: ADME, organism-based; conditions: in vivo
[6] = tested on: Rattus norvegicus; experiment: Glucose lowering effect in po dosed Wistar rat assessed as decrease in plasma glucose level administered 30 mins before glucose challenge by OGTT; assay type: functional, organism-based
[7] = Half life in Wistar rat at 1 mg/kg, iv; assay type: ADME, organism-based; design: dose 1 mg/kg, route intravenous; conditions: in vivo
[8] = Volume of distribution in Wistar rat at 1 mg/kg, iv and 3 mg/kg, po; assay type: ADME, organism-based; conditions: in vivo
[9] = Tmax in Wistar rat at 1 mg/kg, iv and 3 mg/kg, po; assay type: ADME, organism-based; conditions: in vivo

Compound	EC50 [1] [nM]	EC50 [2] [nM]	also measured
Cc1csc(NC(=O)c2cc(Sc3nncn3C)ccc2N)n1	–	–	clearance [3]: 14.3 mL/min/kg; Cmax [4]: 8.5 µM; bioavailability [5]: 100%; Activity [6]: Dose-dependent effect; half-life [7]: 54 min; Vd [8]: 0.4 L/kg; Tmax [9]: 30 min
Cn1cnnc1Sc1ccc(N)c(C(=O)Nc2ccncc2)c1	> 10000	> 10000	–
Cc1csc(NC(=O)c2cc(Sc3ncc[nH]3)ccc2N)n1	380	1600	–
Cn1cnnc1Sc1ccc(N)c(C(=O)Nc2ncns2)c1	120	490	–
Cc1csc(NC(=O)c2cccc(Sc3nncn3C)c2)n1	1500	7300	–
Cc1nsc(NC(=O)c2cc(Sc3nncn3C)ccc2N)n1	180	640	–
Cn1cnnc1Sc1ccc(N)c(C(=O)Nc2ccccn2)c1	230	1200	–
Cc1csc(NC(=O)c2cc(Sc3ccccn3)ccc2N)n1	220	1200	–
Cc1csc(NC(=O)c2cc(Sc3nccn3C)ccc2N)n1	100	230	–
Cn1cnnc1Sc1ccc(N)c(C(=O)Nc2cccnc2)c1	> 10000	> 10000	–
Cc1csc(NC(=O)c2cc(Sc3ccccc3)ccc2N)n1	200	920	–
Nc1ccc(Cl)cc1C(=O)Nc1nccs1	2600	11000	–
Cn1cnnc1Sc1ccc(N)c(C(=O)Nc2nc(C(F)(F)F)cs2)c1	930	2700	–
Cc1csc(NC(=O)c2cc(Sc3nncn3C)ccc2[N+](=O)[O-])n1	> 10000	> 10000	–
Cc1cnc(NC(=O)c2cc(Sc3nncn3C)ccc2N)s1	110	330	–
CCSc1ccc(N)c(C(=O)Nc2nc(C)cs2)c1	180	780	–
Cn1cnnc1Sc1ccc(N)c(C(=O)Nc2nccs2)c1	130	350	–

Continued, in another order:

EC50 [1] [nM]	EC50 [2] [nM]	Compound	also measured
> 30000	> 30000	Nc1ccccc1C(=O)Nc1nccs1	–
100	260	Cc1csc(NC(=O)c2cc(Oc3ccccc3F)ccc2N)n1	–
420	1100	CCOC(=O)c1csc(NC(=O)c2cc(Sc3nncn3C)ccc2N)n1	–
120	410	COc1ccccc1Oc1ccc(N)c(C(=O)Nc2nc(C)cs2)c1	–
130	700	Cc1csc(NC(=O)c2cc(Oc3ccccc3)ccc2N)n1	–
1700	6800	CCOc1ccc(N)c(C(=O)Nc2nc(C)cs2)c1	–
> 10000	> 10000	Cn1cnnc1Sc1ccc(N)c(C(=O)Nc2ccccc2)c1	–
420	1600	Cn1cnnc1Sc1ccc(N)c(C(=O)Nc2nc(CO)cs2)c1	–
140	600	Cc1csc(NC(=O)c2cc(Oc3cccc(F)c3)ccc2N)n1	–
130	510	Cc1csc(NC(=O)c2cc(Oc3ccccc3S(C)(=O)=O)ccc2N)n1	–
540	2400	Cc1csc(NC(=O)c2cc(Sc3nnc[nH]3)ccc2N)n1	–
> 30000	> 30000	Cc1csc(NC(=O)c2ccc(Cl)cc2N)n1	–
400	1700	Cc1csc(NC(=O)c2cc(Oc3ccc(F)cc3)ccc2N)n1	–
1400	6500	Cc1csc(NC(=O)c2cc(Cl)ccc2N)n1	–
6300	17000	Cc1csc(NC(=O)c2cccc(Cl)c2)n1	–
